Active and inactive are the calls of the source. The calls are words filed in the database; no cut-off is given here.
Key:
Rattus norvegicus [1] = assay: In vivo for 5-HTP accumulation in hemispheres (cortex) against reserpine-pretreated rats.; type: functional
Rattus norvegicus [2] = assay: In vivo for 5-HTP accumulation in corpus striatum against reserpine-pretreated rats.; type: functional
[3] = target: 5-hydroxytryptamine receptor 1B (Homo sapiens, UniProt P28222); assay: Binding affinity against 5-hydroxytryptamine 1D receptor beta expressed in CHO-K1 cells, using [3H]5-HT as the radioligand.; type: cell-based
Chain of 5-hydroxytryptamine receptor 1B (P28222 whole entry): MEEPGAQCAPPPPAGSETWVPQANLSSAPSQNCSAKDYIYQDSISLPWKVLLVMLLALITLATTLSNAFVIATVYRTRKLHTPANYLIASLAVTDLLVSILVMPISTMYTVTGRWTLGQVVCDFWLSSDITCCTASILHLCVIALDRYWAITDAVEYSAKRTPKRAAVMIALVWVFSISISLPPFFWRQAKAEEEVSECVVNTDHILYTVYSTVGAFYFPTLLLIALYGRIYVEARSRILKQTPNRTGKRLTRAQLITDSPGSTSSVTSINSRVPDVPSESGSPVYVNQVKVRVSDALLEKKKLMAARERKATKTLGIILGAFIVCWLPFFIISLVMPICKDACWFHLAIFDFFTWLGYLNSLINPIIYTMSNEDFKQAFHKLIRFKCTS

D(2) dopamine receptor [4] = target: T1, D(2) dopamine receptor (Rattus norvegicus, UniProt P61169); assay: Binding affinity against Dopamine receptor D2 expressed in CHO-K1 cells, using [3H]U-86170 as the radioligand.; type: cell-based
T1 sequence (P61169 whole entry): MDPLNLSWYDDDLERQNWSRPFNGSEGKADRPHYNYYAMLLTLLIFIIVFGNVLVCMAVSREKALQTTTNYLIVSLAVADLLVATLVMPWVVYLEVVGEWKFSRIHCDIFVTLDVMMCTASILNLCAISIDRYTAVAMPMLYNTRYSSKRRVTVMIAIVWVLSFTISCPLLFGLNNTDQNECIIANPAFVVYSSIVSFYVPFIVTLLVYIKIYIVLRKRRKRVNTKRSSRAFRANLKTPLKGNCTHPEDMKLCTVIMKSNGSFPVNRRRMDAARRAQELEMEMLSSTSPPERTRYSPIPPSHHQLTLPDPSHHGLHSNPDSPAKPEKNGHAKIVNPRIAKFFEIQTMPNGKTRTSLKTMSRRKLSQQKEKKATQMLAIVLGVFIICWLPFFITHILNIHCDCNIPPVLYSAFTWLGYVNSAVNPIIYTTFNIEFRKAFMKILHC

[5] = target: 5-hydroxytryptamine receptor 1D (Homo sapiens, UniProt P28221); assay: Binding affinity against 5-hydroxytryptamine 1D receptor alpha expressed in CHO-K1 cells, using [3H]-5-HT as the radioligand.; type: cell-based; settings: read-out: Ki
Chain of 5-hydroxytryptamine receptor 1D (P28221 whole entry): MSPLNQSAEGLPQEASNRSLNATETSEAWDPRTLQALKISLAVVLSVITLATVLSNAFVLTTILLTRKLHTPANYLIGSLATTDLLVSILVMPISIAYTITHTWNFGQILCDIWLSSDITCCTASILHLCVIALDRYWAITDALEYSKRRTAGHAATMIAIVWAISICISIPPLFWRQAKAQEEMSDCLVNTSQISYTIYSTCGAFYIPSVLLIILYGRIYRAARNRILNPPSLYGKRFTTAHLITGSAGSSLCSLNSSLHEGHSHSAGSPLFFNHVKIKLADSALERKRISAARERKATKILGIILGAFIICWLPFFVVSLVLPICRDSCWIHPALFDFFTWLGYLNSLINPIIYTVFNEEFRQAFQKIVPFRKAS

D(3) dopamine receptor [6] = target: T2, D(3) dopamine receptor (Rattus norvegicus, UniProt P19020); assay: Binding affinity against Dopamine receptor D3 expressed in CHO-K1 cells, using [3H]spiperone as the radioligand.; type: cell-based
T2 sequence (P19020 whole entry): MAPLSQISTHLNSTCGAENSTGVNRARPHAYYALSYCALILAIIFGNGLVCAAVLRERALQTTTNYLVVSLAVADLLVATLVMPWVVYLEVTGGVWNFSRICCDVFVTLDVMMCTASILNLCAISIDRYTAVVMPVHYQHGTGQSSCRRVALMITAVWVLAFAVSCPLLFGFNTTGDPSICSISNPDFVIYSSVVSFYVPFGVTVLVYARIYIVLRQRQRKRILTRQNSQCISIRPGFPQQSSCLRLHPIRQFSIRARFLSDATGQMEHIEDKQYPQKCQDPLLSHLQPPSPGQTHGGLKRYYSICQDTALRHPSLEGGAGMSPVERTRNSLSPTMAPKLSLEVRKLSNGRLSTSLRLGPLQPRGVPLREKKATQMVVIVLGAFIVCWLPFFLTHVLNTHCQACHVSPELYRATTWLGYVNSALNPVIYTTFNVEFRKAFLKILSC

Rattus norvegicus [7] = assay: The Compound was tested in vivo for DOPA accumulation in hemispheres (cortex) against reserpine-pretreated rats; Iinactive at the highest dose tested (12.5).; type: functional, organism-based
Rattus norvegicus [8] = assay: In vivo for DOPA accumulation in limbic system against reserpine-pretreated rats.; type: functional
Rattus norvegicus [9] = assay: In vivo for 5-HTP accumulation in limbic system against reserpine-pretreated rats.; type: functional
Rattus norvegicus [10] = assay: In vivo for DOPA accumulation in corpus striatum against reserpine-pretreated rats.; type: functional
[11] = target: T3, 5-hydroxytryptamine receptor 1A (Rattus norvegicus, UniProt P19327); assay: Binding affinity against 5-hydroxytryptamine 1A receptor from CHO-K1 cells, using [3H]8-OH-DPAT as the radioligand.; type: cell-based
T3 sequence (P19327 whole entry): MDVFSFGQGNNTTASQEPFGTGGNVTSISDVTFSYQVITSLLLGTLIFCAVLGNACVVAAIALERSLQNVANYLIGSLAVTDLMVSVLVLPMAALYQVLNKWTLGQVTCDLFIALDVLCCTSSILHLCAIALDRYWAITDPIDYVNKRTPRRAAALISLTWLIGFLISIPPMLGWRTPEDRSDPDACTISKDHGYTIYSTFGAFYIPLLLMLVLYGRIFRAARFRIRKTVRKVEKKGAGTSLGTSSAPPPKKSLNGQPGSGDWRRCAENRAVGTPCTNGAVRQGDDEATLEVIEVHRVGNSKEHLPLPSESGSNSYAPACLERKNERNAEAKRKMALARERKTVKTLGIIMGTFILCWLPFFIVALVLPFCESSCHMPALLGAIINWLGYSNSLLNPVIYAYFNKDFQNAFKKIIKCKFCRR

D(3) dopamine receptor [12] = target: T2, D(3) dopamine receptor; assay: Binding affinity against Dopamine receptor D3 from CHO-K1 cells, using [3H]spiperone as the radioligand.; type: cell-based
D(2) dopamine receptor [13] = target: T1, D(2) dopamine receptor; assay: Binding affinity against Dopamine receptor D2 from CHO-K1 cells, using [3H]U-86,170 as the radioligand.; type: cell-based
Rattus norvegicus [14] = assay: The Compound was tested in vivo for DOPA accumulation in hemispheres (cortex) against reserpine-pretreated rats; I=inactive at the highest dose tested (50).; type: functional, organism-based
Rattus norvegicus [15] = assay: Compound was tested in vivo for DOPA accumulation in corpus striatum against reserpine-pretreated rats; P=significant partial reduction only at the highest dose tested (50).; type: functional, organism-based
Rattus norvegicus [16] = assay: The Compound was tested in vivo for DOPA accumulation in limbic system against reserpine-pretreated rats; P=significant partial reduction only at the highest dose tested (50).; type: functional, organism-based
Rattus norvegicus [17] = assay: The compound was tested in vivo for DOPA accumulation in limbic system against reserpine-pretreated rats; I= inactive at the highest dose tested (50).; type: functional, organism-based
Rattus norvegicus [18] = assay: compound was tested in vivo for 5-HTP accumulation in corpus striatum against reserpine-pretreated rats, activity expressed as ED50; type: functional
Rattus norvegicus [19] = assay: compound was tested in vivo for DOPA accumulation in corpus striatum against reserpine-pretreated rats; I= inactive at the highest dose tested (50).; type: functional, organism-based
Rattus norvegicus [20] = assay: The compound was tested in vivo for DOPA accumulation in hemispheres (cortex) against reserpine-pretreated rats; I= inactive at the highest dose tested (50).; type: functional, organism-based
Rattus norvegicus [21] = assay: compound was tested in vivo for 5-HTP accumulation in hemispheres (cortex) against reserpine-pretreated rats; type: functional
Rattus norvegicus [22] = assay: compound was tested in vivo for 5-HTP accumulation in limbic system against reserpine-pretreated rats,; type: functional
D(3) dopamine receptor [23] = target: T2, D(3) dopamine receptor; assay: The compound was tested in vitro for binding affinity against cloned mammalian Dopamine receptor D3 expressed in CHO cells by, using [3H]spiperone as radioligand; type: cell-based
Rattus norvegicus [24] = assay: The Compound was tested in vivo for DOPA accumulation in hemispheres (cortex) against reserpine-pretreated rats; P=significant partial reduction only at the highest dose tested (50).; type: functional, organism-based
Rattus norvegicus [25] = assay: The Compound was tested in vivo for DOPA accumulation in hemispheres (cortex) against reserpine-pretreated rats; I=inactive at the highest dose tested (3.1).; type: functional, organism-based
Rattus norvegicus [26] = assay: The Compound was tested in vivo for DOPA accumulation in hemispheres (cortex) against reserpine-pretreated rats;I= inactive at the highest dose tested (50).; type: functional, organism-based
Rattus norvegicus [27] = assay: Compound was tested in vivo for DOPA accumulation in corpus striatum against reserpine-pretreated rats;P= significant partial reduction only at the highest dose tested (50).; type: functional, organism-based

Compound | ED50 (Rattus norvegicus [1]) [µmol/kg] | ED50 (Rattus norvegicus [2]) [µmol/kg] | Ki ([3]; read-out: Ki) [nM] | Ki (D(2) dopamine receptor [4]) [nM] | Ki [5] [nM] | Ki (D(3) dopamine receptor [6]) [nM] | ED50 (Rattus norvegicus [9]) [µmol/kg] | Ki [11] [nM] | also measured
CCCN(CCC)C1CCc2ccc3[nH]ccc3c2C1 (stereo unspecified) | 0.17 | 0.076 | 349 | 15 | 40 | 37 | 0.096 | – | ED50 (Rattus norvegicus [7]): inactive; ED50 (Rattus norvegicus [8]): 0.15 µmol/kg; ED50 (Rattus norvegicus [10]): 0.3 µmol/kg
CCCN(CCC)[C@@H]1CCc2ccc3[nH]cc(C(=O)C(N)=O)c3c2C1 | – | – | 856 | – | 54 | – | – | 17 | Ki (D(3) dopamine receptor [12]; cho-k1): Not Active; Ki (D(2) dopamine receptor [13]): 472 nM
CCCN(CCC)C1CCc2ccc3[nH]cc(C(=O)C(=O)N(CC)CC)c3c2C1 (stereo unspecified) | – | – | – | – | – | – | – | 7.3 | –
CCCN(CCC)C1CCc2ccc3[nH]cc(C(=O)c4ccccc4)c3c2C1 (stereo unspecified) | – | – | – | 177 | – | 108 | – | 8.6 | –
CCCN(CCC)[C@H]1CCc2ccc3[nH]cc(C#N)c3c2C1 | – | – | 304 | 419 | 42 | 391 | – | 0.5 | ED50 (Rattus norvegicus [14]): inactive; ED50 (Rattus norvegicus [15]): Weak activity; ED50 (Rattus norvegicus [16]): Weak activity
CCCNC1CCc2cc(F)ccc2C1 (stereo unspecified) | – | – | 1510 | 162 | 585 | – | – | 134 | ED50 (Rattus norvegicus [17]): inactive; ED50 (Rattus norvegicus [18]): 9.53 µmol/kg; ED50 (Rattus norvegicus [19]): inactive; ED50 (Rattus norvegicus [20]): inactive; ED50 (Rattus norvegicus [21]): 12.8 µmol/kg; ED50 (Rattus norvegicus [22]): 15.5 µmol/kg; Ki (D(3) dopamine receptor [23]): 156 nM
CCCN(CCC)C1CCc2ccc3[nH]cc(Cl)c3c2C1 (stereo unspecified) | – | – | – | 9.8 | 23 | 15 | – | 2 | Ki ([3]; cho-k1): Not Active; ED50 (Rattus norvegicus [24]): Weak activity
CCCN(CCC)[C@H]1CCc2ccc3[nH]ccc3c2C1 | 0.23 | 0.34 | 2280 | 17 | 440 | 22 | 0.21 | – | ED50 (Rattus norvegicus [8]): 0.51 µmol/kg; ED50 (Rattus norvegicus [25]): inactive; ED50 (Rattus norvegicus [10]): 0.82 µmol/kg
CCCN(CCC)C1CCc2ccc3[nH]cc(C(C)=O)c3c2C1 (stereo unspecified) | 13 | 16 | 587 | 206 | 108 | 320 | 15.5 | 14 | ED50 (Rattus norvegicus [16]): Weak activity; ED50 (Rattus norvegicus [26]): inactive; ED50 (Rattus norvegicus [27]): Weak activity
CCCc1c[nH]c2c(F)cc3c(c12)CC(N(CCC)CCC)CC3 (stereo unspecified) | – | – | 177 | – | 8.4 | – | – | 11 | Ki (D(3) dopamine receptor [12]; read-out: Ki): 111 nM; Ki (D(2) dopamine receptor [13]): 5.9 nM
CCCN(CCC)C1CCc2ccc3c(c2C1)CC(=O)N3 (stereo unspecified) | 0.86 | 0.41 | 194 | – | 26 | – | 0.45 | 14 | ED50 (Rattus norvegicus [14]): inactive; Ki (D(3) dopamine receptor [12]; read-out: Ki): 23 nM; Ki (D(2) dopamine receptor [13]): 11 nM; ED50 (Rattus norvegicus [8]): 0.17 µmol/kg; ED50 (Rattus norvegicus [10]): 0.25 µmol/kg

Reference: ChEMBL document CHEMBL1128401, “Structure-activity relationships in the 8-amino-6,7,8,9-tetrahydro-3H-benz[e]indole ring system. 1. Effects of substituents in the aromatic system on serotonin and dopamine receptor subtypes” (J Med Chem, 1995)
